Results published in PMC8989888, “Development of optimized drug-like small molecule inhibitors of the SARS-CoV-2 3CL protease for treatment of COVID-19” (Nature Communications, 2022).
Read-outs that look alike come from different tables or passages of the source.

Biological target: SARS-CoV-2 3CL protease (Severe acute respiratory syndrome coronavirus 2, UniProt P0DTD1)
Assay type: biochemical
Parameters: Avg: unit not given here
Settings: for Inhibition at 10 µM: 10 µM compound; for Inhibition at 100 µM: 100 µM compound; for IC50 / LogIC50: Figure S1 and S2
[1] = Conc 10 µM, average response of dose-response curve
[2] = Conc 15 µM, average response of dose-response curve
[3] = Conc 20 µM, average response of dose-response curve
[4] = Conc 50 µM, average response of dose-response curve
[5] = Conc 100 µM, average response of dose-response curve
[6] = Conc 200 µM, average response of dose-response curve
[7] = dose-response retest of fragment hits
[8] = Conc 10 µM, mean response (inhibition) of dose-response curve
[9] = Conc 15 µM, mean response (inhibition) of dose-response curve
[10] = Conc 20 µM, mean response (inhibition) of dose-response curve
[11] = Conc 50 µM, mean response (inhibition) of dose-response curve
[12] = Conc 100 µM, mean response (inhibition) of dose-response curve
[13] = Conc 200 µM, mean response (inhibition) of dose-response curve
[14] = dose-response curve of fragment hit
[15] = log of IC50 (µM), dose-response curve fit

Row | Compound | Inhibition at 10 µM [%] | Inhibition at 100 µM [%] | Avg [1] | Avg [2] | Avg [3] | Avg [4] | Avg [5] | Avg [6] | IC50 [7] [µM] | LogIC50 (log of IC50 in µM) | Avg [8] | Avg [9] | Avg [10] | Avg [11] | Avg [12] | Avg [13] | IC50 [14] [µM] | LogIC50 (log10 of IC50 in µM) | further results
1 | O=C(CCl)N1CCN(c2ccccc2[N+](=O)[O-])CC1 [Z1562119284] | 20 | 90 | 20 | 20 | 26 | 56.4 | 90 | 97.6 | 44.6 | 1.6496 |  |  |  |  |  |  |  |  | 
2 | CN(C)C(=O)c1csc(C(=O)CCl)c1 [Z3244705145] | 24 | 89 |  |  |  |  |  |  |  |  | 23.6 | 22.7 | 40.5 | 58.7 | 89 | 99.3 | 35.9 | 1.555 | 
3 | N#Cc1ccc(S)nc1 [Z367678594] | 16 | 100 |  |  |  |  |  |  |  |  | 16.1 | 29.5 | 30.5 | 107.9 | 110.6 | 113.2 | 25 | 1.398 | 
4 | CCNC(=O)N1CCC(NC(=O)c2cccnc2S)C1 (stereo not shown) [Z1421663935] | 4 | 100 |  |  |  |  |  |  |  |  |  |  |  |  |  |  |  |  | Avg (Conc 10 µM): 3.7; Avg (Conc 15 µM): 20; Avg (Conc 20 µM): 18.3; Avg (Conc 50 µM): 97.3; Avg (Conc 100 µM): 103.3; Avg (Conc 200 µM): 100; IC50 (dose-response curve fit): 28 µM; LogIC50 [15]: 1.447
5 | CC1C(=O)Nc2ccc(C(=O)CCl)cc21 (stereo not shown) [Z94598687] | 3 | 85 |  |  |  |  |  |  |  |  | 3 | 12.3 | 39.4 | 61.2 | 84.9 | 105.3 | 33.9 | 1.53 | 
6 | O=C(NCCc1ccc(F)cc1)n1ccnc1 [Z235353843] | 30 | 96 | 29.9 | 15.5 | 42.1 | 82.2 | 95.9 | 102.1 | 27.6 | 1.441 |  |  |  |  |  |  |  |  | 
7 | CN1Cc2cc(C(=O)CCl)ccc2NC1=O [Z2491497315] | 16 | 95 | 15.7 | 35.9 | 38.8 | 78.6 | 95.1 | 102.1 | 24.2 | 1.383 |  |  |  |  |  |  | 24.2 | 1.383 | 
8 | NC(=O)CCc1ccc(C(=O)CCl)cc1 [Z1203664423] | 22 | 88 |  |  |  |  |  |  |  |  |  |  |  |  |  |  |  |  | Avg (Conc 10 µM): 21.6; Avg (Conc 15 µM): 41.7; Avg (Conc 20 µM): 49.5; Avg (Conc 50 µM): 69.9; Avg (Conc 100 µM): 88.3; Avg (Conc 200 µM): 103.3; IC50 (dose-response curve fit): 22 µM; LogIC50 [15]: 1.341
9 | COC1(CNC(=O)c2cccnc2S)CCOCC1 [Z1483040147] | 0 | 90 |  |  |  |  |  |  |  |  |  |  |  |  |  |  |  |  | Avg (Conc 10 µM): -6.5; Avg (Conc 15 µM): -1.8; Avg (Conc 20 µM): 13.4; Avg (Conc 50 µM): 61.8; Avg (Conc 100 µM): 90; Avg (Conc 200 µM): 90.2; IC50 (dose-response curve fit): 39.7 µM; LogIC50 [15]: 1.599
10 | O=C(CCl)c1csc(N2CCCCC2)n1 [Z2469673977] | 51 | 100 | 51.4 | 56.3 | 64 | 57.3 | 102 | 104.1 |  |  |  |  |  |  |  |  |  |  | 
11 | Cc1ccccc1CN1CCN(C(=O)CCl)CC1 [Z208155076] | 18 | 85 | 18.2 | 5.8 | 36.6 | 64.8 | 84.6 | 98.1 | 35.8 | 1.554 |  |  |  |  |  |  |  |  | 
12 | Nc1cccnc1S [Z1741977862] | 21 | 100 | 21.4 | 52.3 | 66.1 | 102.9 | 106.8 | 99.2 | 15.2 | 1.183 |  |  |  |  |  |  |  |  | 
13 | N#Cc1ccnc(S)c1 [Z2687203952] | 12 | 100 |  |  |  |  |  |  |  |  | 11.5 | 33.9 | 67.8 | 111.2 | 107.8 | 106.7 | 17.4 | 1.241 | 
14 | O=C(CCl)N1CCN(Cc2cccs2)CC1 [Z166605372] | 3 | 70 | 3.4 | 11.2 | 27.4 | 53.6 | 69.5 | 93 | 47.5 | 1.677 |  |  |  |  |  |  |  |  | 
15 | COC(C)(C)CNC(=O)c1cccnc1S [Z1274680193] | 27 | 80 |  |  |  |  |  |  |  |  |  |  |  |  |  |  |  |  | Avg (Conc 10 µM): 27.3; Avg (Conc 15 µM): 54.6; Avg (Conc 20 µM): 67.5; Avg (Conc 50 µM): 90.4; Avg (Conc 100 µM): 80.1; Avg (Conc 200 µM): 60.9; IC50 (dose-response curve fit): 14.2 µM; LogIC50 [15]: 1.153
16 | O=C(NCCC1=CCOCC1)c1cccnc1S [Z1510476385] | 0 | 99 | 0.1 | 16 | 18.7 | 80.4 | 98.6 | 100.4 | 31.3 | 1.496 |  |  |  |  |  |  |  |  | 
17 | Cc1cnc(=S)[nH]c1 [Z2768165643] | 41 | 100 |  |  |  |  |  |  |  |  | 41.2 | 59.8 | 69.1 | 106.7 | 109.4 | 108.2 | 13 | 1.114 | 
18 | O=C(CCl)COc1ccc(Cl)cc1 [Z3236282166] | 48 | 100 |  |  |  |  |  |  |  |  | 47.7 | 63.9 | 86.8 | 98.6 | 103.3 | 106 | 11.5 | 1.059 | 
19 | Cc1cc(C(=O)CCl)c(C)n1-c1nccs1 [Z56979277] | 64 | 100 |  |  |  |  |  |  |  |  | 63.6 | 80.9 | 90.9 | 95.6 | 101.9 | 108.5 |  |  | 
20 | CC(C)Cc1ncc(CNC(=O)c2cccnc2S)s1 [Z1494348106] | 4 | 100 |  |  |  |  |  |  |  |  |  |  |  |  |  |  |  |  | Avg (Conc 10 µM): 3.5; Avg (Conc 15 µM): 37.1; Avg (Conc 20 µM): 49.8; Avg (Conc 50 µM): 100.8; Avg (Conc 100 µM): 102.9; Avg (Conc 200 µM): 93.1; IC50 (dose-response curve fit): 18.8 µM; LogIC50 [15]: 1.275
21 | O=C(CCl)N1CCc2[nH]c3ccccc3c2C1 [Z398556976] | 43 | 100 |  |  |  |  |  |  |  |  | 42.8 | 70.8 | 74.6 | 93.9 | 100.2 | 98.1 | 11 | 1.042 | 
